What all share (experiment): biochemical
Assay type in all cases: binding

Experiment [1] addresses T1, panel of 442 kinases (Homo sapiens, UniProt O94921).
T1 construct: purchased Ambit Biosciences (scanMAXX KINOMEscan)
To be noted: kinase PFTK1; for remaining activity at 1 µM: read-out: % of control at 1 µM.

The target in experiment [2] is T2, panel of 442 kinases (Homo sapiens, UniProt P52333).
T2 construct: purchased Ambit Biosciences (scanMAXX KINOMEscan)
T2 sequence (P52333 1-1124): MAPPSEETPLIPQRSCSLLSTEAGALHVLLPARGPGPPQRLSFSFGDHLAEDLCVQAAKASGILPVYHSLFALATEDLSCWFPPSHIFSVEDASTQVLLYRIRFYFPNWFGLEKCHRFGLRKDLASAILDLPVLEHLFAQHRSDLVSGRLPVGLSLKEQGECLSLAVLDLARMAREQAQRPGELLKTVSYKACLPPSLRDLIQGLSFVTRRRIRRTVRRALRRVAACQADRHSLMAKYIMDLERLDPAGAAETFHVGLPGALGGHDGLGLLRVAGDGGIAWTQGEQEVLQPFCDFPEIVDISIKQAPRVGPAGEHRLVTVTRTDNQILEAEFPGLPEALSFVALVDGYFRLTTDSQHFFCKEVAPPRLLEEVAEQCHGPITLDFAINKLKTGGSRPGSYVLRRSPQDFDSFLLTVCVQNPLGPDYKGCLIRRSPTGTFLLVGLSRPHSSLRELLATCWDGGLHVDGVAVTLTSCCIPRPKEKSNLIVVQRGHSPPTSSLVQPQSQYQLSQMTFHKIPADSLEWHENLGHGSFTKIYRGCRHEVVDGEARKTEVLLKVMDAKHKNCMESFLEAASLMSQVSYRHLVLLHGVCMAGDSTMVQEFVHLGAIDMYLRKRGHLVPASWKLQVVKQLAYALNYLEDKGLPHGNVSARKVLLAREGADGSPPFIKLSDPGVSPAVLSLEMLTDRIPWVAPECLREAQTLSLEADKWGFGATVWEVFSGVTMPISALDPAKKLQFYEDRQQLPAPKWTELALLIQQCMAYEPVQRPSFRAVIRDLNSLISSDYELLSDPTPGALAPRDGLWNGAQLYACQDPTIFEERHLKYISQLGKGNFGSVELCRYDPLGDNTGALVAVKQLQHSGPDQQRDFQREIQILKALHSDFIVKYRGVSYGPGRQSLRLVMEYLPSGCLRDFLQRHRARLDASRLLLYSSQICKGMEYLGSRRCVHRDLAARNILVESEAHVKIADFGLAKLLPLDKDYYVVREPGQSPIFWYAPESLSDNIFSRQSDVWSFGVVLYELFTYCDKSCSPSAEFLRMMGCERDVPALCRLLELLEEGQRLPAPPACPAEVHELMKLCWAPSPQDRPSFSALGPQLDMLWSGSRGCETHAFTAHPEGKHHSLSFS
To be noted: kinase JAK3(JH1domain-catalytic); for remaining activity at 1 µM: read-out: % of control at 1 µM.

The target of experiment [3] is T3, panel of 442 kinases (Homo sapiens, UniProt O96017).
T3 construct: purchased Ambit Biosciences (scanMAXX KINOMEscan)
To be noted: CHEK2; for remaining activity at 1 µM: read-out: % of control at 1 µM.

The target in experiment [4] is T4, panel of 442 kinases (Homo sapiens, UniProt P51813).
T4 construct: purchased Ambit Biosciences (scanMAXX KINOMEscan)
T4 sequence (P51813 1-675): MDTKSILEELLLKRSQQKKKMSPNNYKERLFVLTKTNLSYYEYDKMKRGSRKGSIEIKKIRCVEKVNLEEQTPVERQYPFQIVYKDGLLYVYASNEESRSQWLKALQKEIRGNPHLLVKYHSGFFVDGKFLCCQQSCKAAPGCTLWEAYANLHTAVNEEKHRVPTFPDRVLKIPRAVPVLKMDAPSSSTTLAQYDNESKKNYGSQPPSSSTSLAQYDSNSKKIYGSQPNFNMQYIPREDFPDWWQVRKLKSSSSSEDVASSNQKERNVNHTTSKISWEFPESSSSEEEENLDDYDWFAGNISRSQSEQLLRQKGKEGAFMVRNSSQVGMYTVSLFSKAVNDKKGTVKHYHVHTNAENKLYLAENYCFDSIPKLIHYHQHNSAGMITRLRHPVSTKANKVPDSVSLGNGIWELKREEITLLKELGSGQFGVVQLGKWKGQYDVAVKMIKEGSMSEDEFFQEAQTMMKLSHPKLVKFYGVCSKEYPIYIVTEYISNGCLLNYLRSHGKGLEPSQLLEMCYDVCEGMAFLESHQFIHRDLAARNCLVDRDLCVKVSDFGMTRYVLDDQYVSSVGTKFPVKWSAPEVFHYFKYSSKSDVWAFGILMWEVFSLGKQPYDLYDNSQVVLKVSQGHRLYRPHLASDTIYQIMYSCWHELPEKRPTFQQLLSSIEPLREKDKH
To be noted: BMX; for remaining activity at 1 µM: read-out: % of control at 1 µM.

For experiment [5], the target named is T5, panel of 442 kinases (Homo sapiens, UniProt P22694).
T5 construct: purchased Ambit Biosciences (scanMAXX KINOMEscan)
To be noted: kinase PKAC-beta; for remaining activity at 1 µM: read-out: PKAC-beta (% of control at 1 µM).

Experiment [6] concerns the target T6, panel of 442 kinases (Homo sapiens, UniProt Q13188).
T6 construct: purchased Ambit Biosciences (scanMAXX KINOMEscan)
T6 sequence (Q13188 1-491): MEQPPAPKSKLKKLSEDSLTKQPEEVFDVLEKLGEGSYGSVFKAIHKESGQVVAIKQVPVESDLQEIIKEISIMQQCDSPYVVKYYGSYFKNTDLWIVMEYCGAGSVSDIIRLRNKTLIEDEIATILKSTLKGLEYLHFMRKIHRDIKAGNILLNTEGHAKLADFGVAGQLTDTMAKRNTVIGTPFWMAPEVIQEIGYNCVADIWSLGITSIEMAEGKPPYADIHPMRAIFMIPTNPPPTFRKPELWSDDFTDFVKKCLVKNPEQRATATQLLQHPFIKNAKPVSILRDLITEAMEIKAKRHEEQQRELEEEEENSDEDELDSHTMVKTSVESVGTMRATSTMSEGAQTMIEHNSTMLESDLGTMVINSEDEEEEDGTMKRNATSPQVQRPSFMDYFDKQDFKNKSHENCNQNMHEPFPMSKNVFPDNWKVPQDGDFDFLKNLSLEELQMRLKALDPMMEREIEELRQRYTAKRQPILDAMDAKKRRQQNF
To be noted: kinase MST2; for remaining activity at 1 µM: read-out: % of control at 1 µM.

Experiment [7] deals with T7, panel of 442 kinases (Homo sapiens, UniProt P08922).
T7 construct: purchased Ambit Biosciences (scanMAXX KINOMEscan)
To be noted: kinase ROS1; for remaining activity at 1 µM: read-out: ROS1 (% of control at 1 µM).

Where [8] appears, read: 10 µM, read-out: % of control at 10 µM.

T3 sequence (O96017 whole entry): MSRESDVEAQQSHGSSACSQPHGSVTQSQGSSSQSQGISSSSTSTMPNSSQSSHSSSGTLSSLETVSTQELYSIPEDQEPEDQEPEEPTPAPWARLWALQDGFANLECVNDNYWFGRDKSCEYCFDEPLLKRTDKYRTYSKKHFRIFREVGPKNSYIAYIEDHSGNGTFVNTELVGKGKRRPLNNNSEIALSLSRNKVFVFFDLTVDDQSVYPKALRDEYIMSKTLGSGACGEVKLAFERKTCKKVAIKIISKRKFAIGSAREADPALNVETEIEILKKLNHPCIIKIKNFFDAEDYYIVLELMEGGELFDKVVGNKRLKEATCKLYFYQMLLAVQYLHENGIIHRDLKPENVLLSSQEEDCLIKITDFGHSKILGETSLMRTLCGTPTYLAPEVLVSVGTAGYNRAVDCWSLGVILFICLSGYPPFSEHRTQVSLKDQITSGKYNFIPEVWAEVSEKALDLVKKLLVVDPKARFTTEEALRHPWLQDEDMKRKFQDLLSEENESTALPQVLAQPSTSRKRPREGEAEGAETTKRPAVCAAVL
T1 sequence (O94921 whole entry): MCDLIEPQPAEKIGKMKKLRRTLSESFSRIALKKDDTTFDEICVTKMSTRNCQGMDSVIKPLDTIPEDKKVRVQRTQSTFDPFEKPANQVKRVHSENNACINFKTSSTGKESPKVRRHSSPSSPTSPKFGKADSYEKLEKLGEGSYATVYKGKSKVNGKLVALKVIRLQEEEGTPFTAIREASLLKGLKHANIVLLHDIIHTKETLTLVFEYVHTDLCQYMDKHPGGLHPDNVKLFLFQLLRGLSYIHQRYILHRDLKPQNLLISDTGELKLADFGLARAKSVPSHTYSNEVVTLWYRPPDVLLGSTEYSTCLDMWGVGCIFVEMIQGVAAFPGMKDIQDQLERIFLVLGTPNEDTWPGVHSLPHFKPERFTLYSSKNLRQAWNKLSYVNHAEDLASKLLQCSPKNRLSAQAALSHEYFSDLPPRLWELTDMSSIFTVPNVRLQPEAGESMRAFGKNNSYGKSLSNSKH
T7 sequence (P08922 28-2347): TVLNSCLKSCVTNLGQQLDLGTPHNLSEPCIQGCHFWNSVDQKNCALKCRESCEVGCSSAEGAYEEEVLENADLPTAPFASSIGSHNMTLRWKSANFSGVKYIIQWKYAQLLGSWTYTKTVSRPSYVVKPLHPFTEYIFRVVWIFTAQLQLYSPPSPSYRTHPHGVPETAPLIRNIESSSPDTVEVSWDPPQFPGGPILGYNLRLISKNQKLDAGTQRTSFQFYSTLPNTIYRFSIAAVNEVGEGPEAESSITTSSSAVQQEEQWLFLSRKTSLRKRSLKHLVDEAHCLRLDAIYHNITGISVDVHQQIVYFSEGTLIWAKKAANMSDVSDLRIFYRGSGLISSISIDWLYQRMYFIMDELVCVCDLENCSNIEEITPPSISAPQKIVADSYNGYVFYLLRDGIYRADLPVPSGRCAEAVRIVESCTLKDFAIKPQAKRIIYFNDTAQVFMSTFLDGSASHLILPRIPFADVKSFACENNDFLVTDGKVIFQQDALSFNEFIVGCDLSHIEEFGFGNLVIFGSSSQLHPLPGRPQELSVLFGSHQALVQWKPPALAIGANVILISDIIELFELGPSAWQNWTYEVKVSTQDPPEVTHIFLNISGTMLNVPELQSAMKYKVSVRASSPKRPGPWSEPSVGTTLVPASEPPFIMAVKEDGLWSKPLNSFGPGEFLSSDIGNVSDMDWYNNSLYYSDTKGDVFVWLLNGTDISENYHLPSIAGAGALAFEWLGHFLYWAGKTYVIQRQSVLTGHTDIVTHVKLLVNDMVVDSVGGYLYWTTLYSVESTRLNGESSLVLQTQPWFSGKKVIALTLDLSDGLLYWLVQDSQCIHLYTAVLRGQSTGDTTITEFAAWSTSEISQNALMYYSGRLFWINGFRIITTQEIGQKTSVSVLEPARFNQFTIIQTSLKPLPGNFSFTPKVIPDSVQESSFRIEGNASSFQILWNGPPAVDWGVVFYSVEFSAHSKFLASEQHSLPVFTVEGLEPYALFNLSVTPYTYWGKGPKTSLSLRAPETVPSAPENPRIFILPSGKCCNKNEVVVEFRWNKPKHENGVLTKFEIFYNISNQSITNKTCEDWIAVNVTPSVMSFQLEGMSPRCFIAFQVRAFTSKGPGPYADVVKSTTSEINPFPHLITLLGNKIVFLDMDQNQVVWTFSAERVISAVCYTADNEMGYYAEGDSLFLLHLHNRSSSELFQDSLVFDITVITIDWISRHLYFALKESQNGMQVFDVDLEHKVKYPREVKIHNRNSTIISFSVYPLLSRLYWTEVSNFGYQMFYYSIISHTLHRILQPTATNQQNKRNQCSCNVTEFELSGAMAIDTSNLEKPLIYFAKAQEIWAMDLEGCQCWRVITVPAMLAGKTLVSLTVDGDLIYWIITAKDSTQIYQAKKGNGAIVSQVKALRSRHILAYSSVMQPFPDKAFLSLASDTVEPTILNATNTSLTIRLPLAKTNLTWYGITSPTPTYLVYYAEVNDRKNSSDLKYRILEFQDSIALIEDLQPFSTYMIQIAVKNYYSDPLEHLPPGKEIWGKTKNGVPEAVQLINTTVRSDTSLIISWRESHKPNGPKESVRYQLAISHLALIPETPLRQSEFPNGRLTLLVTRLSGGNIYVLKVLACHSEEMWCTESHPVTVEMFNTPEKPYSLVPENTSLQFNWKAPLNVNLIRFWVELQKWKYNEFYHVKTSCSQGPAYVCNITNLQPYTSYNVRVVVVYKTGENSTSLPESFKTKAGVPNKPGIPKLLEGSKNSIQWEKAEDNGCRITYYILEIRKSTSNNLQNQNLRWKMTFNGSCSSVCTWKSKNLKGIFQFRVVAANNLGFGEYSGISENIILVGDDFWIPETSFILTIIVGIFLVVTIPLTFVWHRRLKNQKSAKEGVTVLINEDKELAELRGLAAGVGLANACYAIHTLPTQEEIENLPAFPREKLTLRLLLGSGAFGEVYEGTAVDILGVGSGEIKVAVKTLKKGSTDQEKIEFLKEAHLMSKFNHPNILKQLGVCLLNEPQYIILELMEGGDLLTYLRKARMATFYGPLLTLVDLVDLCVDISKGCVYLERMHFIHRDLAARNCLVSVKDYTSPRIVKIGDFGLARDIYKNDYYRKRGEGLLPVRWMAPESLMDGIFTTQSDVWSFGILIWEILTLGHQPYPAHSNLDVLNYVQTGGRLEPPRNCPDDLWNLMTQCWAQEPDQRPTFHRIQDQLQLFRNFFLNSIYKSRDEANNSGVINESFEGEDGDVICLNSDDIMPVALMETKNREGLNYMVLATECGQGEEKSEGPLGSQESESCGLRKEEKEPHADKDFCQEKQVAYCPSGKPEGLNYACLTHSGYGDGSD

Consider `Nc1cc(C(F)(F)F)c(-c2cc(N3CCOCC3)nc(N3CCOCC3)n2)cn1` [Buparlisib], for which the remaining activity at 1 µM on panel of 442 kinases [1] turned out to be 100%; on panel of 442 kinases [2], 90%; on panel of 442 kinases [3], 93%; on panel of 442 kinases [4], 100%; at panel of 442 kinases [5], 79%; at panel of 442 kinases [6], 89%. Further, on panel of 442 kinases [7], the remaining activity at 1 µM turned out to be 84%. For the same molecule, the remaining activity at 10 µM on panel of 442 kinases [1] (setting [8]) was found to be 97%; on panel of 442 kinases [2] (setting [8]) it was 89%; on panel of 442 kinases [3] (setting [8]) it was 100%; at panel of 442 kinases [4] (setting [8]), 100%; on panel of 442 kinases [5] (10 µM, read-out: PKAC-beta (% of control at 10 µM)), 100%; at panel of 442 kinases [6] (setting [8]) it was 84%. Moreover, the remaining activity at 10 µM at panel of 442 kinases [7] (10 µM, read-out: ROS1 (% of control at 10 µM)) worked out at 79%.

On to `Cn1c(=O)n(-c2ccc(C(C)(C)C#N)cc2)c2c3cc(-c4cnc5ccccc5c4)ccc3ncc21` [Dactolisib, 2-methyl-2-[4-(3-methyl-2-oxo-8-quinolin-3-yl-2,3-dihydroimidazo[4,5-c]quinolin-1-yl)-phenyl] propionitrile], for which the remaining activity at 1 µM on panel of 442 kinases [1] is 98%; at panel of 442 kinases [2], 37%; on panel of 442 kinases [5], 90%; at panel of 442 kinases [6], 43%; at panel of 442 kinases [7] it was 100%.

Consider `COc1ncc(-c2ccc3nccc(-c4ccnnc4)c3c2)cc1NS(=O)(=O)c1ccc(F)cc1F` [Omipalisib], for which the remaining activity at 1 µM was 97% at panel of 442 kinases [1]; 82% at panel of 442 kinases [2]; 100% on panel of 442 kinases [3]; 96% at panel of 442 kinases [4]; 100% on panel of 442 kinases [5]; 53% on panel of 442 kinases [6]. The remaining activity at 1 µM on panel of 442 kinases [7] worked out at 100%.

On to `FC(F)c1nc2ccccc2n1-c1nc(N2CCOCC2)nc(N2CCOCC2)n1` [ZSTK474, 2-(difluoromethyl)-1-[4,6-di(4-morpholinyl)-1,3,5-triazin-2-yl]-1H-benzimidazole], for which the remaining activity at 1 µM at panel of 442 kinases [1] was 100%; at panel of 442 kinases [2] it was 100%; on panel of 442 kinases [3] it was 92%; on panel of 442 kinases [4], 99%; at panel of 442 kinases [5], 100%; at panel of 442 kinases [6] it was 76%. The remaining activity at 1 µM on panel of 442 kinases [7] was determined as 100%.

For the origin of these results see paper PMC5564600 (Oncotarget, 2017).
